Molecules are shown by their SMILES.

The first assay concerns the target T1, IRAK4 (Homo sapiens, UniProt Q9NWZ3).
T1 construct: endogenous in cells; host or cells: OCI-LY10
T1 sequence (Q9NWZ3 1-460): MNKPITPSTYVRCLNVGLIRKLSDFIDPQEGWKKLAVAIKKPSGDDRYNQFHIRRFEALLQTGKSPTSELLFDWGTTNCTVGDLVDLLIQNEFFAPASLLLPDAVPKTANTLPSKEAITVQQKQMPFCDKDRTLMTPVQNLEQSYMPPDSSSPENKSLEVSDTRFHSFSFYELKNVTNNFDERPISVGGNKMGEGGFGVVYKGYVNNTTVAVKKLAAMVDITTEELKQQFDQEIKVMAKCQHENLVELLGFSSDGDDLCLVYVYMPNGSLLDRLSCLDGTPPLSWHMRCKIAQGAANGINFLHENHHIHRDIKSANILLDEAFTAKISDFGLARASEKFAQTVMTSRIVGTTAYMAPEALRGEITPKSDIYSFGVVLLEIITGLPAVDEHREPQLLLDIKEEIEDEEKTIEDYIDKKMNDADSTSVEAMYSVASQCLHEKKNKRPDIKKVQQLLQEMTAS
Description: IRAK4 MSD Degradation in OCI-LY10. The assay is classed as cell-based. The conditions noted are these: OCI-LY10 cells, 4 hrs incubation, read-out: IRAK4 degradation in OCI-LY10 at 4 hrs: DC50. In outline: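 IRAK4 remaining in lysates was read by Meso Scale electrochemiluminescence sandwich (2H9 capture, Y279 plus SULFO-TAG detection). Cells were exposed 4 to 24 h at 37 °C to eight 3-fold dilutions from 1 to 10 μM final top; three-parameter logistic fit gave DC50.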
Take `Cn1c(=O)n(C2CCC(=O)NC2=O)c2cccc(NC[C@H]3CC[C@H](n4cc5cc(NC(=O)c6cccc(C(F)(F)F)n6)c(C(C)(C)O)cc5n4)CC3)c21` (stereo partly shown) [I-147, N-[2-[4-[[[1-(2,6-dioxo-3-piperidyl)-3-methyl-2-oxo-benzimidazol-4-yl]amino]methyl]cyclohexyl]-6-(1-hydroxy-1-methyl-ethyl)indazol-5-yl]-6-(trifluoromethyl)pyridine-2-carboxamide]: the DC50 (usually the concentration giving 50% degradation) lay in the range of 500 to 1000 nM.
For `CN(CC#Cc1ccc2c(c1)n(C)c(=O)n2C1CCC(=O)NC1=O)C[C@H]1CC[C@H](n2cc3cc(NC(=O)c4cccc(C(F)(F)F)n4)c(C(F)F)cc3n2)CC1` (stereo partly shown) [I-148], the DC50 is 500 to 1000 nM.
On the same count and under the same terms, as for `Cn1c(=O)n(C2CCC(=O)NC2=O)c2ccc(N3CCN(C[C@H]4CC[C@H](n5cc6cc(NC(=O)c7cccc(C(F)(F)F)n7)c(C(F)F)cc6n5)CC4)CC3)cc21` (stereo partly shown) [I-149], the figure is < 50 nM; as for `COc1cc2nn([C@H]3CC[C@H](CNc4cccc5c4n(C)c(=O)n5C4CCC(=O)NC4=O)CC3)cc2cc1NC(=O)c1cccc(C(F)(F)F)n1` (stereo partly shown) [I-150], 500 to 1000 nM.
As to `Cn1c(=O)n(C2CCC(=O)NC2=O)c2cccc(C[C@H]3C[C@]4(CC[C@@H](N(C)C[C@H]5CC[C@H](n6cc7cc(NC(=O)c8cccc(C(F)(F)F)n8)c(C(F)F)cc7n6)CC5)CC4)C3)c21` (stereo partly shown) [I-151], the DC50 fell in the range of 50 to 100 nM.
With `COc1cc2nn([C@H]3CC[C@H](CN(C)[C@H]4CC[C@@]5(CC4)C[C@@H](Cc4cccc6c4n(C)c(=O)n6C4CCC(=O)NC4=O)C5)CC3)cc2cc1NC(=O)c1cccc(C(F)(F)F)n1` (stereo partly shown) [I-152], the DC50 was in the range of 50 to 100 nM.
The same measure, in the same setting: as for `Cn1c(=O)n(C2CCC(=O)NC2=O)c2cccc(NC3CC4(CCN(C[C@H]5CC[C@H](n6cc7cc(NC(=O)c8cccc(C(F)(F)F)n8)c(C(C)(C)O)cc7n6)CC5)CC4)C3)c21` (stereo partly shown) [I-153], the figure is < 50 nM.
The same measure, in the same setting: with `Cn1c(=O)n(C2CCC(=O)NC2=O)c2cccc(CCCC3CCN(C[C@H]4CC[C@H](n5cc6cc(NC(=O)c7cccc(C(F)(F)F)n7)c(N7C[C@@H]8C[C@H]7CO8)cc6n5)CC4)CC3)c21` (stereo partly shown) [I-154] the figure was 50 to 100 nM; with `Cn1c(=O)n(C2CCC(=O)NC2=O)c2cccc(C[C@H]3C[C@@]4(CC[C@@H](N(C)C[C@H]5CC[C@H](n6cc7cc(NC(=O)c8cccc(C(F)(F)F)n8)c(C(F)F)cc7n6)CC5)CC4)C3)c21` (stereo partly shown) [I-155], < 50 nM; with `COc1cc2nn([C@H]3CC[C@H](CN4CCN(c5ccc6c(c5)n(C)c(=O)n6C5CCC(=O)NC5=O)CC4)CC3)cc2cc1NC(=O)c1cccc(C(C)(C)F)n1` (stereo partly shown) [I-156], 50 to 100 nM.
As for `Cn1c(=O)n(C2CCC(=O)NC2=O)c2ccc(N3CCN(C[C@H]4CC[C@H](n5cc6cc(NC(=O)c7cccc(C(C)(C)F)n7)c(C(F)F)cc6n5)CC4)CC3)cc21` (stereo partly shown) [I-157], the DC50 fell in the range of 50 to 100 nM.
As for `COc1cc2nn([C@H]3CC[C@H](CN4CCC(CCCc5cccc6c5n(C)c(=O)n6C5CCC(=O)NC5=O)CC4)CC3)cc2cc1NC(=O)c1cnn2cccnc12` (stereo partly shown) [I-158], the DC50 is < 50 nM.
Regarding `COc1cc2nn([C@H]3CC[C@H](CN(C)[C@H]4CC[C@]5(CC4)C[C@@H](Cc4cccc6c4n(C)c(=O)n6C4CCC(=O)NC4=O)C5)CC3)cc2cc1NC(=O)c1cccc(C(F)(F)F)n1` (stereo partly shown) [I-160], the DC50 lay within 50 to 100 nM.
The same measure, in the same setting: with `COc1cc2nn([C@H]3CC[C@H](CN4CCC5(CC4)CC(Nc4cccc6c4n(C)c(=O)n6C4CCC(=O)NC4=O)C5)CC3)cc2cc1NC(=O)c1cccc(C(F)(F)F)n1` (stereo partly shown) [I-162] the figure was < 50 nM.
On the same count and under the same terms, as for `COc1cc2nn([C@H]3CC[C@H](CN4CCC5(CC4)CC(CNc4cccc6c4n(C)c(=O)n6C4CCC(=O)NC4=O)C5)CC3)cc2cc1NC(=O)c1cccc(C(F)(F)F)n1` (stereo partly shown) [I-163], the figure is 50 to 100 nM.
Same read-out and setting: as for `Cn1c(=O)n(C2CCC(=O)NC2=O)c2cccc(NCC3CC4(CCN(C[C@H]5CC[C@H](n6cc7cc(NC(=O)c8cccc(C(F)(F)F)n8)c(C(C)(C)O)cc7n6)CC5)CC4)C3)c21` (stereo partly shown) [I-166], the figure is < 50 nM; as for `COc1cc2nn([C@H]3CC[C@H](CN4CCN(c5cccc6c5n(C)c(=O)n6C5CCC(=O)NC5=O)CC4)CC3)cc2cc1NC(=O)c1cccc(C(C)(C)F)n1` (stereo partly shown) [I-167], 50 to 100 nM.
For the molecule `CN(C[C@H]1CC[C@H](n2cc3cc(NC(=O)c4cccc(C(F)(F)F)n4)c(C(F)F)cc3n2)CC1)C1CCN(c2cccc3c2n(C)c(=O)n3C2CCC(=O)NC2=O)CC1` (stereo partly shown) [I-168], the 50% degradation concentration (DC50) was < 50 nM.
Still for that read-out and setting: with `Cn1c(=O)n(C2CCC(=O)NC2=O)c2cccc(N3CCN(C[C@H]4CC[C@H](n5cc6cc(NC(=O)c7cccc(C(F)(F)F)n7)c(OC(F)(F)F)cc6n5)CC4)CC3)c21` (stereo partly shown) [I-169] the figure was 50 to 100 nM.
Same read-out and setting: with `COc1cc2nn([C@H]3CC[C@H](CN4CCN(c5cccc6c5n(C)c(=O)n6C5CCC(=O)NC5=O)CC4)CC3)cc2cc1NC(=O)c1cccc(C(F)(F)F)n1` (stereo partly shown) [I-171] the figure was < 50 nM.
Same read-out and setting: with `Cn1c(=O)n(C2CCC(=O)NC2=O)c2cccc(N3CCN(C[C@H]4CC[C@H](n5cc6cc(NC(=O)c7cccc(C(F)(F)F)n7)c(C(C)(C)O)cc6n5)CC4)CC3)c21` (stereo partly shown) [I-172] the figure was < 50 nM; with `Cn1c(=O)n(C2CCC(=O)NC2=O)c2cccc(N3CCN(C[C@H]4CC[C@H](n5cc6cc(NC(=O)c7cccc(C(F)(F)F)n7)c(C(F)F)cc6n5)CC4)CC3)c21` (stereo partly shown) [I-176], < 50 nM; with `Cn1c(=O)n(C2CCC(=O)NC2=O)c2cccc(N3CCN(C[C@H]4CC[C@H](n5cc6cc(NC(=O)c7cccc(C(C)(C)F)n7)c(C(F)F)cc6n5)CC4)CC3)c21` (stereo partly shown) [I-177], 50 to 100 nM.
Consider `CN(C[C@H]1CC[C@H](n2cc3cc(NC(=O)c4cccc(C(F)(F)F)n4)c(N4CCOCC4)cc3n2)CC1)C1CCN(c2cccc3c2n(C)c(=O)n3C2CCC(=O)NC2=O)CC1` (stereo partly shown) [I-178], for which the DC50 was < 50 nM.
On the same count and under the same terms, with `CN(C[C@H]1CC[C@H](n2cc3cc(NC(=O)c4cccc(C(F)(F)F)n4)c(N4C[C@@H]5C[C@H]4CO5)cc3n2)CC1)C1CCN(c2cccc3c2n(C)c(=O)n3C2CCC(=O)NC2=O)CC1` (stereo partly shown) [I-179] the figure was < 50 nM.

Staying with this assay, now noted: OCI-LY10 cells, 24 hrs incubation, read-out: IRAK4 degradation in OCI-LY10 at 24 hrs: DC50.
With `O=C1CCC(N2C(=O)c3cccc(NCCC4CC5(CCN(C[C@H]6CC[C@H](n7cc8cc(NC(=O)c9cccc(C(F)(F)F)n9)c(OC9CC9)cc8n7)CC6)CC5)C4)c3C2=O)C(=O)N1` (stereo partly shown) [I-159], the DC50 is < 50 nM.
The same measure, in the same setting: as for `CN(CCCO[C@H]1C[C@H](Nc2cccc3c2C(=O)N(C2CCC(=O)NC2=O)C3=O)C1)C[C@@]1(C)Cc2cc(NC(=O)c3cnn4cccnc34)c(N3CCOCC3)cc2O1` (stereo partly drawn) [I-161, N-[(2R)-2-[[3-[3-[[2-(2,6-dioxo-3-piperidyl)-1,3-dioxo-isoindolin-4-yl]amino]cyclobutoxy]propyl-methyl-amino]methyl]-2-methyl-6-morpholino-3H-benzofuran-5-yl]pyrazolo[1,5-a]pyrimidine-3-carboxamide], the figure is 500 to 1000 nM; as for `COc1cc2nc([C@H]3CC[C@H](CN4CC5(CC(CCNc6cccc7c6C(=O)N(C6CCC(=O)NC6=O)C7=O)C5)C4)CC3)oc2cc1NC(=O)c1cccc(C(F)(F)F)n1` (stereo partly shown) [I-180], 100 to 500 nM; as for `CN[C@@H](C)C(=O)N[C@H](C(=O)N1CCC[C@H]1c1nc(C(=O)c2cccc(OCCCC3CC4(CCN(C[C@H]5CC[C@H](n6cc7cc(NC(=O)c8cccc(C(F)(F)F)n8)c(OC)cc7n6)CC5)CC4)C3)c2)cs1)C1CCCCC1` [I-181, N-[2-[4-[[2-[3-[3-[2-[(2S)-1-[(2S)-2-cyclohexyl-2-[[(2S)-2-(methylamino)propanoyl]amino]acetyl]pyrrolidin-2-yl]thiazole-4-carbonyl]phenoxy]propyl]-7-azaspiro[3.5]nonan-7-yl]methyl]cyclohexyl]-6-methoxy-indazol-5-yl]-6-(trifluoromethyl)pyridine-2-carboxamide], 500 to 1000 nM.
On the same count and under the same terms, with `CC(C)(O)c1cc2nc([C@H]3CC[C@H](CN4CCC5(CC4)CC(CCNc4cccc6c4C(=O)N(C4CCC(=O)NC4=O)C6=O)C5)CC3)oc2cc1NC(=O)c1cccc(C(F)(F)F)n1` (stereo partly shown) [I-182] the figure was 500 to 1000 nM; with `CC(C)(O)c1cc2nc([C@H]3CC[C@H](CN4CCC5(CC4)CC(Nc4cccc6c4C(=O)N(C4CCC(=O)NC4=O)C6=O)C5)CC3)oc2cc1NC(=O)c1cccc(C(F)(F)F)n1` (stereo partly shown) [I-183], 50 to 100 nM; with `CC(C)(O)c1cc2nc(N3CCC(CN4CCC5(CC4)CC(Nc4cccc6c4C(=O)N(C4CCC(=O)NC4=O)C6=O)C5)CC3)oc2cc1NC(=O)c1cccc(C(F)(F)F)n1` (stereo not shown) [I-184], 50 to 100 nM.
The same measure, in the same setting: with `COc1cc2nn([C@H]3CC[C@H](CN(C)[C@H]4CC[C@]5(CC4)C[C@@H](CNc4cccc6c4C(=O)N(C4CCC(=O)NC4=O)C6=O)C5)CC3)cc2cc1NC(=O)c1cccc(C(F)(F)F)n1` (stereo partly shown) [I-185] the figure was 50 to 100 nM.
Regarding `CN[C@@H](C)C(=O)N[C@H](C(=O)N1Cc2cc(OCCCC3CC4(CCN(C[C@H]5CC[C@H](n6cc7cc(NC(=O)c8cccc(C(F)(F)F)n8)c(OC)cc7n6)CC5)CC4)C3)ccc2C[C@H]1C(=O)N[C@@H]1CCCc2ccccc21)C(C)(C)C` [I-186, (3S)-2-[(2S)-3,3-Dimethyl-2-[[(2S)-2-(methylamino)propanoyl]amino]butanoyl]-7-[3-[7-[[4-[6-methoxy-5-[[6-(trifluoromethyl)pyridine-2-carbonyl]amino]indazol-2-yl]cyclohexyl]methyl]-7-azaspiro[3.5]nonan-2-yl]propoxy]-N-[(1R)-tetralin-1-yl]-3,4-dihydro-1H-isoquinoline-3-carboxamide], the DC50 lay within 500 to 1000 nM.

Values taken from patent US12545659B2, “IRAK degraders and uses thereof” (Kymera Therapeutics, Inc., priority 2019, dated 2026).
